Assay results published in US12441704B2, “Compounds active towards nuclear receptors” (NUEVOLUTION A/S, priority 2019, dated 2025).
Read-outs that look alike come from different tables or passages of the source.

Assays:
[1] = tested on: IL-17A secretion in activated PBMCs; experiment: IL-17A secretion in activated PBMCs; format: cell-based, human; conditions: human PBMCs stimulated with CD3/CD28 Dynabeads for 48 h, absolute IC50
Method: Heparin-treated whole blood from healthy human volunteers was supplied from Hospital de Sant Pau (Barcelona) under the approval of the local ethical review board for human studies (Hospital de Sant Pau, Barcelona, Spain). Human peripheral blood mononuclear cells (PBMCs) were isolated from healthy human volunteers by density gradient centrifugation using the Ficoll-Paque (GE Healthcare). […] Cells were seeded in 384-well plate (DiscoverX), at 40,000 cells per well and cultured 2 h at 37° C. and 5% CO2.
Dose-response curves with compounds were prepared using a 5-fold serial dilution (10 concentrations) in 100% DMSO and further diluted 100-fold in culture medium. Compound solutions (5 μL) were added to the plate containing cells (final DMSO concentration of 0.1%) and incubated for 30 min. Then, cells were stimulated with CD3/CD28 Dynabeads (ThermoFisher, at a bead-to-cell ratio of 1:1) for 48 h at 37° C. and 5% CO2.
IL-17A levels in supernatant were determined by immunoassay using hIL17A QBeads (Intellicyt) and by fluorescence analysis in iQue flow cytometer following the manufacturer's instructions. Inhibition of IL-17A secretion was calculated using the following formula: inhibition=100*[1−[(x−mean basal condition)/(mean top condition−mean basal condition)]]. Activated DMSO-treated cells were used as top condition and activated GNE09461 (10 μM)-treated cells as basal condition.

[2] = target: T1, RORγ ligand-binding domain fused to Gal4 (Homo sapiens, UniProt P51449); experiment: RORγ Reporter Assay (Gal4); format: cell-based
T1 construct: Gal4 (galactose-responsive transcription factor); expressed in transfected cells; host or cells: HEK293
T1 sequence (P51449 269-508 limits assumed): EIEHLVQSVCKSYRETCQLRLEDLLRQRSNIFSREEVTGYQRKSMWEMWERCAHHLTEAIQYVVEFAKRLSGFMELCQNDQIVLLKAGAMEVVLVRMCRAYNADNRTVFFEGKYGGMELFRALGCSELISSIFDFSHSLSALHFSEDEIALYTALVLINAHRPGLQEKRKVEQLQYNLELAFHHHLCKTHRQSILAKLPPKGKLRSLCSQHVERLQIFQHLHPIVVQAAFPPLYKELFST
Method in brief: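 HEK293 cells transiently co-transfected with the Gal4-fused RORγ LBD and a UAS-luciferase reporter were exposed to compounds for 24 h at 37 °C (0.1% DMSO final). Luminescence was read, and percent reduction of RORγ activity was calculated relative to vehicle-average RLU.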

[3] = HEK293 cells co-transfected with RORγ LBD-Gal4 and luciferase reporter, 24 h incubation, absolute EC50, read-out: EC50
[4] = compounds of the present disclosure, value from Table 2 herein, read-out: Gal4 assay EC50

Row | Structure (SMILES) | EC50 [2, 3] | EC50 [2, 4] | IC50 ([1]; Homo sapiens, PBMC, 48 h) | IC50 [1]
1 | NC(=O)CN1CC[C@@H](CNc2ncnc(N(Cc3ccc(C(F)(F)F)cn3)C3CC3)c2F)[C@H](O)C1 (single isomer, unassigned) [Example A7-14-1] | 8.3 nM | < 100 nM | 38 nM | 
2 | NC(=O)CN1CC[C@@H](CNc2ncnc(N(Cc3ccc(C(F)(F)F)nc3)C3CC3)c2F)[C@H](O)C1 (single isomer, unassigned) [Example A7-28-1] | 42 nM |  | 62 nM | 
3 | NC(=O)CN1CC[C@H](CNc2ncnc(N(Cc3ccc(C(F)(F)F)nc3)C3CC3)c2F)[C@@H](O)C1 (single isomer, unassigned) [Example A7-28-2] |  | < 100 nM | 81 nM | 
4 | NC(=O)CN1CC[C@H](CNc2ncnc(N(Cc3ccc(C(F)(F)F)cc3)C3CC3)c2F)[C@@H](O)C1 (stereo in doubt) [Example A7-01-2, rel-2-((3R,4R)-4-(((6-(Cyclopropyl(4-(trifluoromethyl)benzyl)amino)-5-fluoropyrimidin-4-yl)amino)methyl)-3-hydroxypiperidin-1-yl)acetamide] | 1.5 nM |  | 2.7 nM | 
5 | CCN(Cc1ccc(C(F)(F)F)cc1F)c1ncnc(NC[C@H]2CCN(CC(N)=O)C[C@@H]2O)c1F (stereo in doubt) [Example A7-26-2, rel-2-((3R,4R)-4-(((6-(ethyl(2-fluoro-4-(trifluoromethyl)benzyl)amino)-5-fluoropyrimidin-4-yl)amino)methyl)-3-hydroxypiperidin-1-yl)acetamide] | 8.5 nM |  | 29 nM | 
6 | NC(=O)CN1CC[C@@H](CNc2ncnc(N(Cc3ccc(C(O)(C(F)(F)F)C(F)(F)F)cc3)C3CC3)c2F)[C@H](O)C1 (stereo in doubt) [Example A7-54, rac-2-((3R,4R)-4-(((6-(cyclopropyl(4-(1,1,1,3,3,3-hexafluoro-2-hydroxypropan-2-yl)benzyl)amino)-5-fluoropyrimidin-4-yl)amino)methyl)-3-hydroxypiperidin-1-yl)acetamide] | 0.6 nM |  | 5.6 nM | 
7 | Cc1cc(C(F)(F)F)ccc1CN(c1ncnc(NCC2CCN(CC(N)=O)CC2)c1F)C1CC1 [Example A7-02, 2-(4-(((6-(cyclopropyl(2-methyl-4-(trifluoromethyl)benzyl)amino)-5-fluoropyrimidin-4-yl)amino)methyl)piperidin-1-yl)acetamide] | 76 nM |  | 58 nM | 
8 | NC(=O)CN1CCC(O)(CNc2ncnc(N(Cc3ccc(C(F)(F)F)cn3)C3CC3)c2F)CC1 [Example A7-09, 2-(4-(((6-(cyclopropyl((5-(trifluoromethyl)pyridin-2-yl)methyl)amino)-5-fluoropyrimidin-4-yl)amino)methyl)-4-hydroxypiperidin-1-yl)acetamide] | 44 nM | < 100 nM | 190 nM | 
9 | NC(=O)CN1CCC(O)(CNc2ncnc(N(Cc3ccc(C(F)(F)F)cc3)C3CC3)c2F)CC1 [Example A7-10, 2-(4-(((6-(cyclopropyl(4-(trifluoromethyl)benzyl)amino)-5-fluoropyrimidin-4-yl)amino)methyl)-4-hydroxypiperidin-1-yl)acetamide] | 3.3 nM |  | 17 nM | 
10 | NC(=O)CN1CCC(O)(CNc2ncnc(N(Cc3ccc(C(F)(F)F)nc3)C3CC3)c2F)CC1 [Example A7-11, 2-(4-(((6-(cyclopropyl((6-(trifluoromethyl)pyridin-3-yl)methyl)amino)-5-fluoropyrimidin-4-yl)amino)methyl)-4-hydroxypiperidin-1-yl)acetamide] | 72 nM | < 100 nM | 200 nM | 
11 | NC(=O)CN1CCC(CNc2ncnc(N(Cc3ccc(C(F)(F)F)cc3)C3CC3)c2F)(C(N)=O)CC1 [Example A7-44, 1-(2-amino-2-oxoethyl)-4-(((6-(cyclopropyl(4-(trifluoromethyl)benzyl)amino)-5-fluoropyrimidin-4-yl)amino)methyl)piperidine-4-carboxamide] | 24 nM |  | 74 nM | 
12 | NC(=O)CN1CCC(CO)(CNc2ncnc(N(Cc3ccc(C(F)(F)F)nc3)C3CC3)c2F)CC1 [Example A7-45, 2-(4-(((6-(cyclopropyl((6-(trifluoromethyl)pyridin-3-yl)methyl)amino)-5-fluoropyrimidin-4-yl)amino)methyl)-4-(hydroxymethyl)piperidin-1-yl)acetamide] | 46 nM | < 100 nM | 80 nM | 
13 | N#CC1(CNc2ncnc(N(Cc3ccc(C(F)(F)F)cc3)C3CC3)c2F)CCN(CC(N)=O)CC1 [Example A7-50, 2-(4-cyano-4-(((6-(cyclopropyl(4-(trifluoromethyl)benzyl)amino)-5-fluoropyrimidin-4-yl)amino)methyl)piperidin-1-yl)acetamide] | 8.1 nM |  | 40 nM | 
14 | NC(=O)CN1CCC(CO)(CNc2ncnc(N(Cc3ccc(C(F)(F)F)cc3)C3CC3)c2F)CC1 [Example A7-51, 2-(4-(((6-(cyclopropyl(4-(trifluoromethyl)benzyl)amino)-5-fluoropyrimidin-4-yl)amino)methyl)-4-(hydroxymethyl)piperidin-1-yl)acetamide] | 2.4 nM |  | 7.3 nM | 
15 | NC(=O)CN1CCC(CO)(CNc2ncnc(N(Cc3ccc(C(F)(F)F)cn3)C3CC3)c2F)CC1 [Example A7-52, 2-(4-(((6-(cyclopropyl((5-(trifluoromethyl)pyridin-2-yl)methyl)amino)-5-fluoropyrimidin-4-yl)amino)methyl)-4-(hydroxymethyl)piperidin-1-yl)acetamide] | 42 nM | < 100 nM | 130 nM | 

Now from value to compound, other results behind:

Row | EC50 [2, 3] | EC50 [2, 4] | Structure (SMILES) | IC50 ([1]; Homo sapiens, PBMC, 48 h) | IC50 [1]
16 | 5.5 nM |  | CCN(Cc1ccc(C(O)(C(F)(F)F)C(F)(F)F)cc1)c1ncnc(NC[C@]2(O)CCN(CC(N)=O)C[C@H]2O)c1F (relative stereo) [Example D5-04, rel-2-((3R,4R)-4-(((6-(ethyl(4-(1,1,1,3,3,3-hexafluoro-2-hydroxypropan-2-yl)benzyl)amino)-5-fluoropyrimidin-4-yl)amino)methyl)-3,4-dihydroxypiperidin-1-yl)acetamide] | 1 nM | 
17 | 4.5 nM |  | CCN(Cc1ccc(C(F)(F)F)cc1)c1ncnc(NC[C@@]2(O)CCN(C(C(N)=O)c3ccncc3)C[C@@H]2O)c1F (relative stereo) [Example D5-07, rel-2-((3R,4R)-4-(((6-(ethyl(4-(trifluoromethyl)benzyl)amino)-5-fluoropyrimidin-4-yl)amino)methyl)-3,4-dihydroxypiperidin-1-yl)-2-(pyridin-4-yl)acetamide] | 2.5 nM | 
18 | 6.1 nM |  | NC(=O)C(c1ccncc1)N1CC[C@](O)(CNc2ncnc(N(Cc3ccc(C(F)(F)F)cc3)C3CC3)c2F)[C@@H](O)C1 (relative stereo) [Example D5-08, rel-2-((3R,4R)-4-(((6-(cyclopropyl(4-(trifluoromethyl)benzyl)amino)-5-fluoropyrimidin-4-yl)amino)methyl)-3,4-dihydroxypiperidin-1-yl)-2-(pyridin-4-yl)acetamide] | 2.7 nM | 
19 | 3.8 nM |  | NC(=O)CN1CC[C@@H](CNc2ncnc(N(Cc3ccc(C(O)(C(F)(F)F)C(F)(F)F)cc3)C3CC3)c2F)[C@H](O)C1 (single isomer, unassigned) [Example A7-54-1] | 9.8 nM | 
20 | 9.6 nM |  | CCN(Cc1ccc(C(F)(F)F)cc1)c1ncnc(NC[C@]2(O)CCN(CC(N)=O)C[C@H]2O)c1F (single isomer, unassigned) [Example D5-01-1-2] |  | 24 nM
21 | 29 nM |  | Cn1cc(-c2ccc(CN(c3ncnc(NC[C@]4(O)CCN(CC(N)=O)C[C@H]4O)c3F)C3CC3)c(F)c2)cn1 (single isomer, unassigned) [Example D5-05-2] |  | 200 nM
22 | 2.5 nM |  | NC(=O)CN1CC[C@H](CNc2ncnc(N(Cc3ccc(C(O)(C(F)(F)F)C(F)(F)F)cc3)C3CC3)c2F)[C@@H](O)C1 (stereo in doubt) [Example A7-54-2, rel-2-((3R,4R)-4-(((6-(cyclopropyl(4-(1,1,1,3,3,3-hexafluoro-2-hydroxypropan-2-yl)benzyl)amino)-5-fluoropyrimidin-4-yl)amino)methyl)-3-hydroxypiperidin-1-yl)acetamide] | 6.2 nM | 
23 | 20 nM |  | NC(=O)C(CO)N1CCC(O)(CNc2ncnc(N(Cc3ccc(C(F)(F)F)cc3)C3CC3)c2F)CC1 (stereo not drawn) [Example A7-68, 2-(4-(((6-(cyclopropyl(4-(trifluoromethyl)benzyl)amino)-5-fluoropyrimidin-4-yl)amino)methyl)-4-hydroxypiperidin-1-yl)-3-hydroxypropanamide] | 21 nM | 
